Measurements taken from the supplement of paper PMC8671470.

How the values were obtained:
Details in all cases: 72 h
LAMA-84 = test: cell viability (% survival relative to DMSO control, bortezomib = 0%); higher = less cytotoxic
How it was run: (§1)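 In 384-well plates pre-printed with compounds at 1, 10, 100, 1000 or 10000 nM, duplicate wells received cells from 10 AML and 5 CML lines at densities within the linear growth range. The plates stayed at 37 °C with 5% CO2 for 72 h before CellTiter-Glo luminescence was recorded. Each entry is averaged percent survival. Scaling placed vehicle at 100% and a 10 µM positive control at 0%.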

Mono-Mac-6 = test: as above
How it was run: as §1

BV-173 = test: as above
How it was run: as §1

HL-60 = test: area under dose-response curve (viability, 1 nM-10 uM) (fraction (0-1)); higher = more sensitive
How it was run: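 A rescreen of the full library used HL-60 cells in RPMI 1640 with 10% FBS on 384-well plates, run in duplicate at five tenfold concentrations (1–10,000 nM). Each screen included DMSO or 100 nM of one of three metabolic inhibitors and ran 72 h at 37 °C, 5% CO2. CellTiter-Glo viability was scaled between DMSO and 10 μM proteasome-inhibitor wells. Any area under the curve comes from four-parameter log-logistic fits with drc and PharmacoGx.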

[1] = co-treatment: GSK2194069 100 nM
[2] = co-treatment: pictilisib 100 nM

O=C([O-])CC(O)(C(=O)[O-])C(O)C(=O)[O-].[K+].[K+].[K+] (configuration not stated) [Hydroxycitrate]
cell viability (LAMA-84; 1 nM): 93% | cell viability (LAMA-84; 10 nM): 95.9% | cell viability (LAMA-84; 100 nM): 115% | cell viability (LAMA-84; 1000 nM): 93.8% | cell viability (LAMA-84; 10000 nM): 96.4% | cell viability (Mono-Mac-6; 1 nM): 87.8% | cell viability (Mono-Mac-6; 10 nM): 86.8% | cell viability (Mono-Mac-6; 100 nM): 98% | cell viability (Mono-Mac-6; 1000 nM): 90.6% | cell viability (Mono-Mac-6; 10000 nM): 99.5% | cell viability (BV-173; 1 nM): 80.2% | cell viability (BV-173; 10 nM): 95.7% | cell viability (BV-173; 100 nM): 89.1% | cell viability (BV-173; 1000 nM): 104% | cell viability (BV-173; 10000 nM): 105% | area under dose-response curve (HL-60; co-treatment: AZD3965 100 nM): < 0.0301 | area under dose-response curve (HL-60; co-treatment: DMSO vehicle): < 0.0301 | area under dose-response curve (HL-60; [1]): < 0.0301 | area under dose-response curve (HL-60; [2]): < 0.0301

CCCCCN(C)CCC(O)(P(=O)(O)O)P(=O)(O)O [Ibandronate]
cell viability (LAMA-84; 1 nM): 104% | cell viability (LAMA-84; 10 nM): 98.3% | cell viability (LAMA-84; 100 nM): 100% | cell viability (LAMA-84; 1000 nM): 106% | cell viability (LAMA-84; 10000 nM): 103% | cell viability (Mono-Mac-6; 1 nM): 93.1% | cell viability (Mono-Mac-6; 10 nM): 98.3% | cell viability (Mono-Mac-6; 100 nM): 90% | cell viability (Mono-Mac-6; 1000 nM): 103% | cell viability (Mono-Mac-6; 10000 nM): 115% | cell viability (BV-173; 1 nM): 94.6% | cell viability (BV-173; 10 nM): 96% | cell viability (BV-173; 100 nM): 94.4% | cell viability (BV-173; 1000 nM): 120% | cell viability (BV-173; 10000 nM): 122% | area under dose-response curve (HL-60; co-treatment: AZD3965 100 nM): < 0.0301 | area under dose-response curve (HL-60; co-treatment: DMSO vehicle): < 0.0301 | area under dose-response curve (HL-60; [1]): < 0.0301 | area under dose-response curve (HL-60; [2]): < 0.0301

Cc1cc(C(=O)NNCc2ccccc2)no1 [Isocarboxazid]
cell viability (LAMA-84; 1 nM): 98.9% | cell viability (LAMA-84; 10 nM): 97.9% | cell viability (LAMA-84; 100 nM): 99.7% | cell viability (LAMA-84; 1000 nM): 95.5% | cell viability (LAMA-84; 10000 nM): 95.8% | cell viability (Mono-Mac-6; 1 nM): 94.1% | cell viability (Mono-Mac-6; 10 nM): 102% | cell viability (Mono-Mac-6; 100 nM): 104% | cell viability (Mono-Mac-6; 1000 nM): 107% | cell viability (Mono-Mac-6; 10000 nM): 80.8% | cell viability (BV-173; 1 nM): 99.1% | cell viability (BV-173; 10 nM): 101% | cell viability (BV-173; 100 nM): 100% | cell viability (BV-173; 1000 nM): 117% | cell viability (BV-173; 10000 nM): 80.7% | area under dose-response curve (HL-60; co-treatment: AZD3965 100 nM): < 0.0301 | area under dose-response curve (HL-60; co-treatment: DMSO vehicle): < 0.0301 | area under dose-response curve (HL-60; [1]): < 0.0301 | area under dose-response curve (HL-60; [2]): < 0.0301
